This is an account of results in ChEMBL document CHEMBL1133037, “The design, synthesis and physical chemical properties of novel human vasopressin V2-receptor antagonists optimized for parenteral delivery” (Bioorg Med Chem Lett, 2000).

Series [1] relates to Rattus norvegicus. Nature of the series: Ratio of rat urine volume collected from treatment group (10 mg/kg perorally) after 4 hours versus control group was determined. Format: functional.
Another series addresses Vasopressin V2 receptor (Homo sapiens, UniProt P30518). Nature of the series: Displacement of [3H]AVP from human vasopressin V2-receptor expressed in murine fibroblast cell (LV2) membranes. The class given is cell-based.
The nature of series [2]: Compound was tested for solubility in a model parenteral system consisting of 30% poltethylene glycol 200 (PEG-200)/water. Format: ADME. The following applies: read-out: S.
Series [3] in a line: Compound was tested for solubility in a model parenteral system consisting of 30% poltethylene glycol 200 (PEG-200)/water (*, mixture of amophorus and crystalline material). Format: ADME. The following applies: read-out: S.
Series [4] concerns Rattus norvegicus. Nature of the series: Ratio of rat urine volume collected from treatment group (3 mg/kg perorally) after 4 hours versus control group was determined. Format: functional.
Series [5] relates to Rattus norvegicus. Nature of the series: Ratio of rat urine volume collected from treatment group (1 mg/kg perorally) after 4 hours versus control group was determined. The class given is functional.
Series [6] has as its system Rattus norvegicus. Nature of the series: Ratio of urine volume collected from treatment group (10 mg/kg perorally) after 4 hours versus control group was determined; No effect. The class given is functional, organism-based.

Converted amounts (≈) assume the structure as drawn. The source made the active and inactive calls. No cut-off for these calls is given here.

Vasopressin V2 receptor, sequence (P30518 whole entry): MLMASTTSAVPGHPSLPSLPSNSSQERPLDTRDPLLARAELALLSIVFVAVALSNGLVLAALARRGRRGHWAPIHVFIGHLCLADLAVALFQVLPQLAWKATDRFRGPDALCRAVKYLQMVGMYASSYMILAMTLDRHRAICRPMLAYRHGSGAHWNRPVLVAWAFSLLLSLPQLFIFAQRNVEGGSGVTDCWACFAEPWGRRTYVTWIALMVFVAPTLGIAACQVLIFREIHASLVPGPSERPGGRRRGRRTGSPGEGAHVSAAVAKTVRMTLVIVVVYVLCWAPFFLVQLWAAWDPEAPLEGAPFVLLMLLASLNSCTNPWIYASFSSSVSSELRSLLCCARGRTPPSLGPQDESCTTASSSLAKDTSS

In the case of `CN(C)C1CCN(Cc2ccc3n2Cc2ccccc2N(C(=O)c2ccc(NC(=O)c4ccccc4-c4ccccc4)cc2Cl)C3)CC1`, in the series with Rattus norvegicus [1], the Ratio is 2.3. The IC50 on Vasopressin V2 receptor came out at 2 nM.

As to `COc1cc(C(=O)N2Cc3ccc(CN(C)C)n3Cc3ccccc32)ccc1NC(=O)c1ccccc1-c1ccccc1`, the solubility in series [2] was found to be 2200 µg/mL (≈ 3850 µM). For the same compound, the Ratio in the series with Rattus norvegicus [1] came out at 5. The compound also displayed an IC50 on Vasopressin V2 receptor of 5.2 nM.

`COc1cc(NC(=O)c2ccccc2-c2ccccc2)ccc1C(=O)N1Cc2ccc(CN3CCN(C)CC3)n2Cc2ccccc21`: the solubility in series [2] amounted to 300 µg/mL (≈ 479 µM). Further, in the series with Rattus norvegicus [1], the Ratio was 7.8. Further, the IC50 at Vasopressin V2 receptor worked out at 7 nM.

`CN1CCN(Cc2ccc3n2Cc2ccccc2N(C(=O)c2ccc(NC(=O)c4ccccc4-c4ccccc4)cc2Cl)C3)CC1`: the Ratio with Rattus norvegicus [1] is recorded as 3.75. For the same compound, the IC50 at Vasopressin V2 receptor is 1.3 nM.

Take `O=C(Nc1ccc(C(=O)N2Cc3ccc(CN4CCC(N5CCCCC5)CC4)n3Cc3ccccc32)c(Cl)c1)c1ccccc1-c1ccccc1`: in the series on Rattus norvegicus [1], the Ratio is given as 1.5. This compound displayed a half-maximal inhibitory concentration (IC50) at Vasopressin V2 receptor of 2.1 nM.

With `Cc1ccc(F)cc1C(=O)Nc1ccc(C(=O)N2Cc3cccn3Cc3ccccc32)c(Cl)c1` [LIXIVAPTAN], in the series with Rattus norvegicus [1], the Ratio is recorded as 7.4.

Consider `CN(C)Cc1ccc2n1Cc1ccccc1N(C(=O)c1ccc(NC(=O)c3ccccc3-c3ccccc3)cc1O)C2`, for which, in series [3], the solubility came out at 1900 µg/mL (≈ 3410 µM). For the same compound, the Ratio in the series on Rattus norvegicus [1] stood at 3.8. Also, the IC50 at Vasopressin V2 receptor was 14.8 nM.

Regarding `CN(C)Cc1ccc2n1Cc1ccccc1N(C(=O)c1ccc(NC(=O)c3ccccc3-c3ccccc3)cc1Cl)C2`, the solubility in series [3] is 720 µg/mL (≈ 1250 µM). The Ratio in the series on Rattus norvegicus [4] amounted to 5.6; in the series with Rattus norvegicus [5], 2.3; in the series on Rattus norvegicus [1], 6.6. Besides, the IC50 at Vasopressin V2 receptor turned out to be 7.5 nM.

Consider `CN(C)CCN(C)Cc1ccc2n1Cc1ccccc1N(C(=O)c1ccc(NC(=O)c3ccccc3-c3ccccc3)cc1Cl)C2`, for which the Ratio in the series on Rattus norvegicus [1] is listed as 4.2. In addition, the IC50 at Vasopressin V2 receptor was determined as 2.6 nM.

As to `CN1CCN(C(=O)c2ccc3n2Cc2ccccc2N(C(=O)c2ccc(NC(=O)c4ccccc4-c4ccccc4)cc2Cl)C3)CC1.O=C(O)CC(O)(CC(=O)O)C(=O)O`, in series [2], the solubility was 1700 µg/mL.

Turning to `Cc1ccc(F)cc1C(=O)Nc1ccc(C(=O)N2Cc3ccc(CN(C)C)n3Cc3ccccc32)c(Cl)c1`, the Ratio with Rattus norvegicus [4] and in the series with Rattus norvegicus [5] was 1.4 each time.

Regarding `Cc1ccc(F)cc1C(=O)Nc1ccc(C(=O)N2Cc3ccc(C(=O)O)n3Cc3ccccc32)c(Cl)c1`, the Ratio result in the series on Rattus norvegicus [6] was “inactive”.

Compound `CN(C)C1CCN(C(=O)c2ccc3n2Cc2ccccc2N(C(=O)c2ccc(NC(=O)c4ccccc4-c4ccccc4)cc2Cl)C3)CC1` showed an IC50 on Vasopressin V2 receptor of 8.8 nM.

Regarding `CN1CCN(C2CCN(C(=O)c3ccc4n3Cc3ccccc3N(C(=O)c3ccc(NC(=O)c5ccccc5-c5ccccc5)cc3Cl)C4)CC2)CC1.Cl`, the Ratio with Rattus norvegicus [1] is listed as 2.7.
